Legend:
Format in all cases: functional, cell-based
HepG2 = experiment: Cytotoxicity against human HepG2 cells after 24 hrs by MTT assay; details: HepG2, 24 h
HCT-116 = experiment: Cytotoxicity against human HCT116 cells after 24 hrs by MTT assay; details: HCT-116, 24 h
N2a = experiment: Cytotoxicity against mouse Neuro2a cells after 24 hrs by MTT assay

SMILES | IC50 (HepG2) | IC50 (HCT-116) | IC50 (N2a)
C=C(CC(=C)CC(=C)C[C@H]1CC(C)=C[C@@]2(C[C@@H](O)[C@H]3O[C@H](C[C@@H](O)CC(=C)C[C@H]4O[C@H](C/C=C/CCO)C[C@@H](O)[C@@H]4O)[C@H](O)[C@@H](O)[C@@H]3O2)O1)CC(=C)C[C@@H](C)C[C@@H](C)O | 3700 nM | 7.3 µM | 9.6 µM
C=C1[C@@H](O)[C@@H]2O[C@]3(CC[C@H](/C=C/[C@@H](C)[C@@H]4CC(C)=C[C@@]5(O[C@H](C[C@@](C)(O)C(=O)O)CC[C@H]5O)O4)O3)CC[C@H]2O[C@@H]1[C@@H](O)C[C@H](C)[C@H]1O[C@@]2(CCCCO2)CC[C@H]1C [OKADAIC ACID] | 540 nM | 0.67 µM | 0.85 µM
